Experiments:
integrin α5β1 = target: T1, integrin α5β1 (Homo sapiens, UniProt P05556+P08648); test: competitive solid-phase binding ELISA (soluble integrin α5β1 vs coated fibronectin); details: fibronectin-coated plate, soluble integrin α5β1 1.0 μg/ml; read-out: IC50 for competing with fibronectin bound on integrin α5β1
T1 construct: Soluble integrin α5β1 (1.0 μg/ml) (R&D Systems, MN, USA); purchased R&D Systems

BMSCs = test: F-actin cytoskeleton (phalloidin staining, confocal) in BMSCs under microgravity; type: cell-based; details: microgravity 3 days
Description: Testing procedure: BMSCs were cultured in osteogenic medium. […] The representative images were captured at mid-plane of the cells and visualized using a confocal laser scanning microscope (magnification: 400×, scale bar: 25 μm). Hoechst counter-staining (blue; DAPI) was applied for determination of single cells.

differentiated BMSCs = test: quantitative analysis of differentiation activity (ALP, RhoA, Rac1) of BMSCs under normal gravity and microgravity; type: cell-based; details: microgravity
Description: Testing procedure: BMSCs were cultured in osteogenic medium. […] The representative images were captured at mid-plane of the cells and visualized using a confocal laser scanning microscope (magnification: 400×, scale bar: 25 μm). Hoechst counter-staining (blue; DAPI) was applied for determination of single cells. […] The quantitative analysis of the differentiation activity of BMSCs under normal gravity and microgravity is shown in FIG. 6, where FIG. 6a is the ALP activity analysis relative to the positive control group, FIG. 6b is the RhoA activity analysis in total protein, and FIG. 6c is the Rac1 activity analysis in total protein. The data in FIGS. 6a, 6b, and 6c are presented as mean values±SEM. Statistical analysis was performed using one-way […]<0.001; versus control: *p<0.05, ###p<0.001 (n=3).

[1] = growth factor, concentration not given

CC(C)=CCc1c(O)cc(O)c2c(=O)c(-c3ccc(O)cc3)coc12 [8-prenylgenistein]
IC50 (integrin α5β1): 390 ± 280 nM

CC(C)=CCc1c(O)cc(O)c2c1O[C@H](c1ccc(O)cc1)CC2=O [8-prenylnaringenin]
IC50 (integrin α5β1): 7.6 ± 3.92 nM

C[C@]12CC[C@@H]3c4ccc(O)cc4CC[C@H]3[C@@H]1CC[C@@H]2O [E2, reference compound]
F-actin polymerization (BMSCs; [1]): not

COc1ccc(-c2oc3c(CC=C(C)C)c(O[C@@H]4O[C@H](CO)[C@@H](O)[C@H](O)[C@H]4O)cc(O)c3c(=O)c2O[C@@H]2O[C@@H](C)[C@H](O)[C@@H](O)[C@H]2O)cc1 [icariin]
F-actin polymerization (BMSCs; 10 nM): stimulated F-actin polymerization
F-actin polymerization (BMSCs; 0.1 μM): stimulated F-actin polymerization
ALP activity (differentiated BMSCs; differentiated BMSCs): significantly increase
Rac1 activity (differentiated BMSCs; differentiated BMSCs): significantly increase
RhoA activity (differentiated BMSCs; differentiated BMSCs): significantly increase
differentiation of BMSCs (differentiated BMSCs; 10 nM): restore the differentiation
differentiation of BMSCs (differentiated BMSCs; 100 nM): restore the differentiation

IGF-1: growth factor, positive control
F-actin polymerization (BMSCs; [1]): stimulated F-actin polymerization
